Measured values as given in US11001591B2, “TRAF 6 inhibitors” (HELMHOLTZ ZENTRUM MUENCHEN—DEUTSCHES FORSCHUNGSZENTRUM FÜR …, priority 2016, dated 2021).

Tests used:
TRAF6 RZ1 protein = molecular target: T1, TRAF6 RZ1 protein (Homo sapiens, UniProt Q9Y4K3); test: 2D-NMR (SOFAST-HMQC) binding; settings: protein:compound 1:5
T1 construct: RING-Zincfinger1 (RZ1) domain (residues 50-159) of TRAF6 wildtype; GST (N, cleaved yes); made in house; host or cells: E. coli BL21 codon plus RIPL
Experimental: To determine whether the inhibitory compounds directly bind to TRAF6 rather than to Ubc13, 2D-NMR experiments were conducted. Untagged ^15N-labeled TRAF6 RZ1 protein (c=120 μM) and compound (c=20 mM) were incubated at a ratio of 1:5 in a 3 mm NMR tube for 10 minutes before spectra acquisition. To observe chemical shift perturbations upon compound addition, two-dimensional SOFAST-HMQC spectra were acquired. All measurements were performed using the Bruker Avance 600 MHz spectrometer.

MDM2 = molecular target: T2, MDM2 (Homo sapiens, UniProt Q00987); test: In vitro ubiquitination assay, MDM2; assay type: biochemical; settings: K48 chain formation
T2 construct: purchased Boston Biochem one of K-102, K-260, K-200B, K-220, K-240, K-270
T2 sequence (Q00987 whole entry): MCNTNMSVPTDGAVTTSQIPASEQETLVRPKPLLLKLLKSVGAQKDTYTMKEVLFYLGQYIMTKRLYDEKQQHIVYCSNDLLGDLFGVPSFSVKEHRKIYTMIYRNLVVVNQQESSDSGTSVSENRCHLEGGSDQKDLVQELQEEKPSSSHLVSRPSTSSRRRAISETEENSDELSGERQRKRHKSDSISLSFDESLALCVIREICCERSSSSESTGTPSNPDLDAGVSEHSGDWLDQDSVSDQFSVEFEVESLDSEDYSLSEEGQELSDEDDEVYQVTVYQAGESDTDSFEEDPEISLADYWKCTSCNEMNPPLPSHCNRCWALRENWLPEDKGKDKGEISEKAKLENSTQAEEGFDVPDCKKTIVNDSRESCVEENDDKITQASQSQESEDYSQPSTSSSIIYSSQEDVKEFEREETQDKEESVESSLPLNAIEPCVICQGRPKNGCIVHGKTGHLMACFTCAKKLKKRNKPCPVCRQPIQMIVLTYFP
Experimental: For analysis of clAP1, MDM2, TRIM63, RNF4, ITCH and E6AP mediated poly-ubiquitination, the respective ubiquitin ligase kit from Boston Biochem (K-102, K-260, K-200B, K-220, K-240 and K-270) was used. Here, reaction buffer, E1, E2 and E3 enzyme (and p53 substrate in case of MDM2) were mixed and pre-incubated with compound or DMSO for 5 minutes at room temperature before adding Mg^2+-ATP and mono-ubiquitin for reaction start. Ubiquitination was visualized by Western Blot analyses.

[1] = system: TRAF6 auto-ubiquitination; test: Immunoprecipitation of TRAF6, endogenous ubiquitination in MEF cells; assay type: cell-based, mouse
Experimental: 2.5×10^6 MEF cells were seeded, treated with compound for 6 hours and stimulated with IL-1β (3.5 ng/mL) for 10 minutes. Cells were lysed in Co-IP lysis buffer containing 1% SDS to eliminate all cellular interactions. After cell lysis and removal of input samples, the samples were diluted to 0.1% SDS and incubated with 5 μL TRAF6 antibody EP591Y (Abcam) and immunoprecipitated with Protein-G-Sepharose beads. After washing of the beads in Co-IP wash buffer, TRAF6 protein was eluted and levels of TRAF6 ubiquitination were detected by Western Blot analysis.

[2] = system: primary naïve CD4+ T-cells; test: IL-2 in primary murine CD4+ T-cells; assay type: cell-based, mouse; settings: CD3/CD28 stimulation
Experimental: For MEF cells, 1.2×10^5 cells per sample were seeded, treated with compound for 6 hours and stimulated with either IL-1β or TNFα for 60 minutes. […] RNA was isolated according to the manufacturer's protocol of the Qiagen RNeasy Kit (MEF cells) or the STRATEC INVITRAP® SPIN UNIVERSAL RNA MINI KIT (Jurkat T-cells). The isolation of mRNA from […] white adipose tissue from DIO mice was performed using TRIzol® Reagent according to manufacturer's instruction. To clear the isolated RNA from genomic DNA, samples (up to 5 μg RNA) were treated with RQ1 RNase-Free DNaseI (Promega) as described in the technical manual. […] For quantification of cDNA in the samples, the LightCylcer480 (Roche) and the KAPA SYBR FAST qPCR Kit were used. For relative quantification, the ΔΔCp method first described by Pfaffl (Pfaffl, M. W., A new mathematical model for relative quantification in real-time RT-PCR. Nucleic Acids Res, 2001. 29(9): p. e45) was applied. […]
For measurement of cytokine secretion, 2×10^5 Jurkat T-cells or primary CD4^+ T-cells or human PBMCs per sample were seeded, treated with compound for 6 hours and stimulated as indicated. 20 hours after stimulation, supernatants were harvested and analyzed with the IL-2, IL-1β and TNFα Ready-Set-Go! […]

Caco-2 layer = test: Caco-2 assay; assay type: in vitro ADME
Experimental: All ADME (plasma stability, plasma protein binding, microsomal stability, Log D, Caco-2 assay, CYP450 inhibition and hERG predictor assay) as well as pharmacokinetic studies (Tmax, Cmax, AUC0-240 min, Mean Residence Time, Elimination half life, Elimination rate constant, Volume of Distribution and Clearance) of C25-140 (compound 3) were conducted by Bienta Enamine Biology Services of Bienta/Enamine Ltd.

U2OS cells = test: Cell growth of osteosarcoma cell line U2OS; assay type: cell-based
Experimental: For analysis of the cell growth of the osteosarcoma cell line U20S, 5×10^3 cells were seeded in 96 well plates. 18 hours later, cells were treated with C25-140 (compound 3) or DMSO for 6 hours. Using a ^137caesium source (HWM-D2000), selected samples were irradiated with a dose of either 2 Gy or 4 Gy. Cell growth was measured every 24 hours for a period of 7 days by counting Hoechst33342 positive cells in an Operetta High-Content Imaging System (PerkinElmer) and the Harmony/Columbus analysis software (PerkinElmer).

T1 sequence (Q9Y4K3 50-159): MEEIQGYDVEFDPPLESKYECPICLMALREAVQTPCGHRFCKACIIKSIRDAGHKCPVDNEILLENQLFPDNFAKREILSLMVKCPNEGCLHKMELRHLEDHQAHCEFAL

direct binding to TRAF6 (NMR peak shifts) (TRAF6 RZ1 protein): directly binds | p53 ubiquitination by MDM2 (MDM2): not affected | Caco-2 permeability (Caco-2 layer): good penetration
Structure (SMILES): Cc1nn(-c2ccc3nnc(C)n3n2)c(C)c1CCC(=O)N1CCC(Cc2ccccc2)CC1 [Compound 3, 1-(4-benzylpiperidin-1-yl)-3-(3,5-dimethyl-1-(3-methyl-[1,2,4]triazolo[4,3-b]pyridazin-6-yl)-1H-pyrazol-4-yl)propan-1-one]
IL-1β-induced TRAF6 auto-ubiquitination [1]: reduced | IL-2 mRNA expression [2]: impaired | IL-2 protein secretion [2]: impaired | cell proliferation, compound alone vs 2Gy irradiation (U2OS cells; 30 μM): same inhibitory impact | cell proliferation, combination with 2Gy irradiation (U2OS cells; 30 μM C25-140+2Gy): boosted the effect to the region of 4Gy irradiation
